# Test results taken from patent publication USRE42013E1, “Macrocyclic modulators of the ghrelin receptor” (Tranzyme Pharma Inc., priority 2003, dated 2010).
# Biological target: T1, human growth hormone secretagogue receptor (hGHS-R1a) (Homo sapiens, UniProt Q92847)
# T1 construct: purchased PerkinElmer BioSignal #RBHGHSM, lot#1887; host or cells: HEK-293, stably transfected
# Experiment: Competitive radioligand binding assay (ghrelin receptor), [125I]-ghrelin displacement
# Settings: Table 3B; binding at human ghrelin receptor, [125I]-ghrelin displacement; read-out: Ki
# Experimental: The competitive binding assay at the human growth hormone secretagogue receptor (hGHS-R1a) was carried out analogously to assays described in the literature.
# Multiscreen Harvest plates-GF/C (Millipore, #MAHFC1H60) • 4. […] Bottom seal (Millipore, #MATAH0P00) • 7. […] Binding Buffer: 25 mM Hepes (pH 7.4), 1 mM CaCl2, 5 mM MgCl2, 2.5 mM EDTA, 0.4% BSA Assay Volumes
# Competition experiments were performed in a 300 μl filtration assay format. • 1. 220 μL of membranes diluted in binding buffer • 2. 40 μL of compound diluted in binding buffer • 3. […] Compound Handling
# Compounds were provided frozen on dry ice at a stock concentration of 10 mM diluted in 100% DMSO and stored at −80° C. until the day of testing. On the test day, compounds were allowed to thaw at rt O/N and then diluted in assay buffer according to the desired test concentrations.
# Plates were sealed with TopSeal-A, vortexed gently and incubated at rt for 30 min. The reaction was arrested by filtering samples through Multiscreen Harvest plates (pre-soaked in 0.5% polyethyleneimine) using a Tomtec Harvester, washed 9 times with 500 μL of cold 50 mM Tris-HCl (pH 7.4, 4° C.), and then plates were air-dried in a fumehood for 30 min. A bottom seal was applied to the plates prior to the addition of 25 μL of MicroScint-0 to each well. […] Results were expressed as counts per minute (cpm).
# Data were analyzed by GraphPad Prism (GraphPad Software, San Diego, Calif.) using a variable slope non-linear regression analysis.
# Compound structures for Tables 3A, 3B and 3D are presented with the various groups as defined for the general structure of formula I. For Tables 3B and 3D, in all entries, m, n and p are 0; X, Z1 and Z2 are each NH. For Table 3B, R1 is H for all entries. The tethers (T) are illustrated with the bonding to X and Z2 as indicated. The compounds themselves are shown for Table 3C.
# • 1. […] Key Aspects of Method • 1. […] Results
# T1 sequence (Q92847 whole entry): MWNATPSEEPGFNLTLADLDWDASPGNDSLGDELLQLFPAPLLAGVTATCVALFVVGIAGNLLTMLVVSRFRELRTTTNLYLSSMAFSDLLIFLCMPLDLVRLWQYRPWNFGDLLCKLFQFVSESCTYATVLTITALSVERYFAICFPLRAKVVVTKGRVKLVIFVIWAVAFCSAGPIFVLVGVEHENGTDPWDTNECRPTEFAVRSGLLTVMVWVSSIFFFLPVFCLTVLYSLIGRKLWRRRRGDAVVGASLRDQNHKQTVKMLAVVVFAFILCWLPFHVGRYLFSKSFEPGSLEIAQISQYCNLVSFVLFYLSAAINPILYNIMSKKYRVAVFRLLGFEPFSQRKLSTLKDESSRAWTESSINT
row,Compound,Ki [nM]
1,CCC(C)C1NCCOCCCCCNC(=O)C(Cc2cccc(Cl)c2)NC(=O)C2(CCCC2)NC1=O (stereo not shown) [compound 370],100 to 10000
2,COc1ccc(CC2NC(=O)C(C)N(C)C(=O)C(C3CC3)NCCOc3ccccc3CCCNC2=O)cc1OC (stereo not shown) [compound 323],100 to 10000
3,CCC(C)C1NCCOc2ccccc2C(C)(C)CCNC(=O)C(Cc2cccc(Cl)c2)NC(=O)C2(CCCC2)NC1=O (stereo not shown) [compound 359],100 to 10000
4,O=C1NC2(CCCC2)C(=O)NC(Cc2cccc(Cl)c2)C(=O)NCC=Cc2ccccc2OCCNC1Cc1ccsc1 (stereo not shown) [compound 341],< 100
5,CCC(C)C1NCCCCCCNC(=O)C(Cc2cccc(Cl)c2)NC(=O)C2(CCCC2)NC1=O (stereo not shown) [compound 365],100 to 10000
6,CC1C(=O)NC(Cc2ccc(F)cc2)C(=O)NCCCc2cc(Cl)ccc2OCCNC(C2CC2)C(=O)N1C (stereo not shown) [compound 373],< 100
7,CC1C(=O)NC(Cc2ccc(F)cc2)C(=O)NCCCc2ccc(NS(C)(=O)=O)cc2OCCNC(C2CC2)C(=O)N1C (stereo not shown) [compound 357],100 to 10000
8,CC1C(=O)NC(Cc2ccc(F)cc2)C(=O)NCCC=CCOCCNC(C2CC2)C(=O)N1C (stereo not shown) [compound 307],100 to 10000
9,CC1C(=O)NC(Cc2ccsc2)C(=O)NCCCc2ccccc2OCCNC(C2CC2)C(=O)N1C (stereo not shown) [compound 310],< 100
10,CCC(C)C1NCCOc2cccnc2CCCNC(=O)C(Cc2cccc(Cl)c2)NC(=O)C2(CCCC2)NC1=O (stereo not shown) [compound 385],100 to 10000
11,CC1C(=O)NC(Cc2ccc(F)cc2)C(=O)NCCCc2cc(C(F)(F)F)ccc2OCCNC(C2CC2)C(=O)N1C (stereo not shown) [compound 356],100 to 10000
12,CC1CCNC(=O)C(Cc2ccc(F)cc2)NC(=O)C(C)N(C)C(=O)C(C2CC2)NCCOc2ccccc21 (stereo not shown) [compound 375],100 to 10000
13,CCC(C)C1NCCOc2ccccc2C#CCNC(=O)C(Cc2cccc(Cl)c2)NC(=O)C2(CCCC2)NC1=O (stereo not shown) [compound 381],< 100
14,COCC1NCCOc2ccccc2C=CCNC(=O)C(Cc2cccc(Cl)c2)NC(=O)C2(CCCC2)NC1=O (stereo not shown) [compound 344],100 to 10000
15,CCC(C)C1NCCOCCOCCNC(=O)C(Cc2cccc(Cl)c2)NC(=O)C2(CCCC2)NC1=O (stereo not shown) [compound 393],100 to 10000
16,CC1C(=O)NC(Cc2ccc(F)cc2)C(=O)NCC=Cc2ccccc2OCCNC(C2CC2)C(=O)N1C (stereo not shown) [compound 400],< 100
17,O=C1NC2(CCCC2)C(=O)NC(Cc2cccc(Cl)c2)C(=O)NCC=Cc2ccccc2OCCNC1Cc1ccc(O)cc1 (stereo not shown) [compound 301],< 100
18,CCC(C)C1NCCOc2ccccc2C=CCNC(=O)C(Cc2cccc(C#N)c2)NC(=O)C2(CCCC2)NC1=O (stereo not shown) [compound 329],< 100
19,CC1C(=O)NC(Cc2ccc(F)cc2)C(=O)NCCCc2cc(F)ccc2OCCNC(C2CC2)C(=O)N1C (stereo not shown) [compound 355],< 100
20,CC1C(=O)NC(Cc2c[nH]c3ccccc23)C(=O)NCCCc2ccccc2OCCNC(C2CC2)C(=O)N1C (stereo not shown) [compound 324],< 100
21,CCC(C)C1NCCCc2ccccc2CCCCNC(=O)C(Cc2cccc(Cl)c2)NC(=O)C2(CCCC2)NC1=O (stereo not shown) [compound 371],< 100
22,CC1C(=O)NC(Cc2ccc(F)cc2)C(=O)NCCCCCOCCNC(C2CC2)C(=O)N1C (stereo not shown) [compound 398],100 to 10000
23,CC1C(=O)NC(Cc2ccc(F)cc2)C(=O)NCC2CC2c2ccccc2OCCNC(C2CC2)C(=O)N1C (stereo not shown) [compound 379],< 100
24,CC1C(=O)NC(Cc2ccc(F)cc2)C(=O)NCCC(C)(C)c2ccccc2OCCNC(C2CC2)C(=O)N1C (stereo not shown) [compound 378],100 to 10000
25,CC1C(=O)NC(Cc2ccc(F)cc2)C(=O)NCCOc2cccc(c2)OCCNC(C2CC2)C(=O)N1C (stereo not shown) [compound 377],100 to 10000
26,CCC(C)C1NCCCc2ccccc2C=CCCNC(=O)C(Cc2cccc(Cl)c2)NC(=O)C2(CCCC2)NC1=O (stereo not shown) [compound 361],100 to 10000
27,CCC(C)C1NCCOc2ccccc2C=CCNC(=O)C(Cc2cccc(Cl)c2)NC(=O)C2(CCCC2)NC1=O (stereo not shown) [compound 380],100 to 10000

# Same assay, conditions: Table 3D; binding at human ghrelin receptor, [125I]-ghrelin displacement; read-out: Ki
row,Compound,Ki [nM]
1,CCC(C)C1NCCOc2ccccc2CCCNC(=O)C(Cc2ccc(F)cc2)NC(=O)C(COCc2ccccc2)N(C)C1=O (stereo not shown) [compound 440],100 to 10000
2,CCC(C)C1NCCCCCNC(=O)C(Cc2cccc(Cl)c2)NC(=O)C2(CCCC2)NC1=O (stereo not shown) [compound 447],1000 to 10000
3,CC1CNC(C2CC2)C(=O)N(C)C(C)C(=O)NC(Cc2ccccc2)C(=O)NCCCc2ccc(F)cc2O1 (stereo not shown) [compound 435],10 to 100

# Same assay, conditions: Table 4; binding at human ghrelin receptor; TFA salts unless otherwise noted; read-out: Ki
row,Compound,Ki [nM]
1,CCC(C)C1NCCOc2ccccc2CCNC(=O)C(Cc2ccccc2)NC(=O)C(C)N(C)C1=O (stereo not shown) [compound 178],100 to 1000

# Same assay, conditions: [125I]-ghrelin displacement, hGHS-R1a HEK-293 membranes; read-out: Binding Activity at the Human Ghrelin Receptor (Ki)
row,Compound,Ki [nM]
1,CCC(C)C1NCCCc2c(c(=O)n(C)c(=O)n2C)CCCNC(=O)C(Cc2ccccc2)NC(=O)C(C)N(C)C1=O (stereo not shown) [compound 206],> 10000
2,CCC(C)C1NCCCc2ccccc2CCCNC(=O)C(Cc2ccccc2)NC(=O)C(C)N(C)C1=O (stereo not shown) [compound 190],10 to 100
3,CC(=O)N1CCOc2ccccc2C=CCNC(=O)C(Cc2ccccc2)NC(=O)C2(CCCC2)NC(=O)C1CC(C)C (stereo not shown) [compound 204],> 10000
4,CCC(C)C1NCCOc2ccc(C(=N)N)cc2CCCNC(=O)C(Cc2ccccc2)NC(=O)C(C)N(C)C1=O (stereo not shown) [compound 196],> 10000
5,CC(C)C1NCCOc2ccccc2C=CCNC(=O)C(Cc2ccccc2)NC(=O)C2(CCCC2)NC1=O (stereo not shown) [compound 200],10 to 100

# Same assay, conditions: binding activity at the human ghrelin receptor; [125I]-ghrelin displacement, hGHS-R1a/HEK-293 membranes; read-out: Ki
row,Compound,Ki [nM]
1,CCC(C)C1NCCOc2ccccc2CCNC(=O)C(Cc2ccccc2)NC(=O)C(C)N(C)C1=O (stereo not shown) [compound 178],100 to 10000
2,CCC(C)C1NCCc2ccccc2C=CCCNC(=O)C(Cc2ccccc2)NC(=O)C(C)N(C)C1=O (stereo not shown) [compound 188],> 1000
3,CCOC(=O)CCC1NC(=O)C2(CCCC2)NC(=O)C(CC(C)C)NCCOc2ccccc2C=CCNC1=O (stereo not shown) [compound 116],1000 to 10000
4,CC(C)CC1NCCC#CCCNC(=O)C(Cc2ccccc2)NC(=O)C2(CCCC2)NC1=O (stereo not shown) [compound 106],> 10000
5,CC(C)CC1NCCOc2ccccc2C=CCNC(=O)C(Cc2cscn2)NC(=O)C2(CCCC2)NC1=O (stereo not shown) [compound 163],> 10000
6,CCC(C)C1NCCCc2ccccc2CCNC(=O)C(Cc2ccccc2)NC(=O)C(C)N(C)C1=O (stereo not shown) [compound 179],100 to 10000
7,CC(C)CC1NCCOc2cccnc2CCCNC(=O)C(Cc2ccccc2)NC(=O)C2(CCCC2)NC1=O (stereo not shown) [compound 109],1000 to 10000
8,CCCC1NCCOc2ccccc2CCCNC(=O)C(CO)NC(=O)CN(C)C1=O (stereo not shown) [compound 54],> 10000
9,CC(C)CC1NCCOc2ccccc2CCCNC(=O)C(C)NC(=O)C2(CCCC2)NC1=O (stereo not shown) [compound 87],> 10000
10,CN1CC(=O)NC(Cc2ccccc2)C(=O)NCCCc2ccccc2OCCNC(Cc2ccccc2)C1=O (stereo not shown) [compound 75],100 to 10000
11,CCCC1NCCOc2ccccc2CCCNC(=O)C(Cc2ccccc2)NC(=O)C(CCC(=O)O)NC1=O (stereo not shown) [compound 70],> 10000
12,CCC1NCCOc2ccccc2CCCNC(=O)C(Cc2ccccc2)NC(=O)C(C)N(C)C1=O (stereo not shown) [compound 117],10 to 100
13,CC(C)CC1NCc2ccccc2Sc2ccccc2CNC(=O)C(Cc2ccccc2)NC(=O)C2(CCCC2)NC1=O (stereo not shown) [compound 108],1000 to 10000
14,O=C1NC2(CCCC2)C(=O)NC(Cc2ccccc2)C(=O)NCC=Cc2ccccc2OCCNC1Cc1cscn1 (stereo not shown) [compound 134],100 to 10000
15,CCCC1NCCOc2ccccc2CCCNC(=O)C(Cc2ccccc2)NC(=O)C(C)(C)NC1=O (stereo not shown) [compound 66],100 to 10000
16,CCC(C)C1NCCCCC=CCNC(=O)C(Cc2ccccc2)NC(=O)C(C)N(C)C1=O (stereo not shown) [compound 181],> 10000
17,"CCC(C)C1NCCOc2ccccc2CCCNC(=O)C(Cc2ccccc2)NC(=O)C(C(C)CC)N(C)C1=O (single isomer, unassigned) [150b]",> 10000
18,O=C1NCC=Cc2ccccc2OCCNC(C(c2ccccc2)c2ccccc2)C(=O)NC2(CCCC2)C(=O)NC1Cc1ccccc1 (stereo not shown) [compound 129],> 10000
19,CCC(C)C1NCCOc2ccccc2CCCNC(=O)C(Cc2cscn2)NC(=O)C(C)N(C)C1=O (stereo not shown) [compound 33],100 to 10000
20,CC(C)CC1NCCOCCNC(=O)C(Cc2ccccc2)NC(=O)C2(CCCC2)NC1=O (stereo not shown) [compound 44],> 10000
21,CCCC1NCc2ccccc2Sc2ccccc2CNC(=O)C(Cc2ccccc2)NC(=O)CN(C)C1=O (stereo not shown) [compound 77],100 to 10000
22,O=C1NC2(CCCC2)C(=O)NC(Cc2ccccc2)C(=O)NCC=Cc2ccccc2OCCNC1Cc1ccc2ccccc2c1 (stereo not shown) [compound 131],100 to 10000
23,CCCC1NCC2CCC(CNC(=O)C(Cc3ccccc3)NC(=O)CN(C)C1=O)O2 (stereo not shown) [compound 78],> 10000
24,CCC(C)C1NCCc2ccccc2C=CCNC(=O)C(Cc2ccccc2)NC(=O)C(C)N(C)C1=O (stereo not shown) [compound 187],100 to 10000
25,CCCC1NCCOc2ccccc2C=CCNC(=O)C(Cc2ccccc2)NC(=O)C2(CCCC2)NC1=O (stereo not shown) [compound 137],10 to 100
